SMILES strings stand for the structures.

For one test, the target named is Prothrombin (Homo sapiens, UniProt P00734). The test is described as follows: Binding affinity towards human thrombin.
The species entered for another test is Oryctolagus cuniculus. The test is described as follows: Antithrombotic efficacy was determined in a rabbit (A-V) shunt model. Type of test: functional.
The target in a further test is Trypsin (Homo sapiens, UniProt P07477+P07478+P35030). As to the kind of experiment: Binding affinity towards human trypsin. Type of test: protein assay.
The target of test [1] is Coagulation factor X (Homo sapiens, UniProt P00742). As to the kind of experiment: Binding affinity towards human Serine protease FXa.
Sequence of Coagulation factor X (Homo sapiens, UniProt P00742) (P00742 41-179 limits assumed): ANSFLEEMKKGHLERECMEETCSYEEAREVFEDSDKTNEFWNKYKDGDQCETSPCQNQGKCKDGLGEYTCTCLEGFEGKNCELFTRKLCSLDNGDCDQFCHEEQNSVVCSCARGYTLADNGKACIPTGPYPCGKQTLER
Sequence of Coagulation factor X (Homo sapiens, UniProt P00742) (P00742 235-488 limits assumed): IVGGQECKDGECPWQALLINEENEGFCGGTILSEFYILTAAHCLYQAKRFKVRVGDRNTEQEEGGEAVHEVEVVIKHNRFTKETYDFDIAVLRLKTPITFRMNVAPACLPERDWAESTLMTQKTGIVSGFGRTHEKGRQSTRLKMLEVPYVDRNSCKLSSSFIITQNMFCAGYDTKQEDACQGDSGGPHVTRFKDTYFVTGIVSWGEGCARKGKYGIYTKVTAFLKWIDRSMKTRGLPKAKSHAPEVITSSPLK
Test [2] concerns the target T1, Coagulation factor X (Oryctolagus cuniculus, UniProt O19045).
T1 sequence (O19045 whole entry): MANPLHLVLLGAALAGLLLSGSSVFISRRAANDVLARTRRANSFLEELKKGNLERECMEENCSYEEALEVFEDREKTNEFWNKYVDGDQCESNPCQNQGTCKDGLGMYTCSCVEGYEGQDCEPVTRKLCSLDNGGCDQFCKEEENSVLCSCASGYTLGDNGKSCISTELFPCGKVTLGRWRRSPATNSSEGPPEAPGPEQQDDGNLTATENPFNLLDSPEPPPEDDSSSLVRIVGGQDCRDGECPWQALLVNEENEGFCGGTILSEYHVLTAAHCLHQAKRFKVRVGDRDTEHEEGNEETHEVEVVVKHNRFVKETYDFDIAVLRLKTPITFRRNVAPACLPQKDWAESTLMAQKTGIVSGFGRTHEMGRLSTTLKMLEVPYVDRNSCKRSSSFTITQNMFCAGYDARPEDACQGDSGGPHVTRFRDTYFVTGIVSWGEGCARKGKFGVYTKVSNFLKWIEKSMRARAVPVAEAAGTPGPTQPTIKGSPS
The test is described as follows: Binding affinity towards Rabbit Coagulation factor X in a rabbit arterio-venous (A-V) shunt model.

Consider `N=C(N)c1cccc(-n2nnnc2C(=O)Nc2ccc(-c3ccccc3S(N)(=O)=O)cc2)c1.O=C(O)C(F)(F)F`, for which the Ki on Prothrombin came out at 300 nM; on Trypsin it was 6.4 nM; on Coagulation factor X [1], 0.037 nM. Further, the ID50 in the test filed under Oryctolagus cuniculus amounted to 0.13 µM/h/kg.

As for `Cc1cc(C(=O)Nc2ccc(-c3ccccc3S(N)(=O)=O)cc2)n(-c2cccc(C(=N)N)c2)n1.O=C(O)C(F)(F)F`, in the test listed under Oryctolagus cuniculus, the ID50 is 0.023 µM/h/kg.

With `N=C(N)c1cccc(-c2nocc2C(=O)Nc2ccc(-c3ccccc3S(N)(=O)=O)cc2)c1.O=C(O)C(F)(F)F`, the ID50 in the test listed under Oryctolagus cuniculus turned out to be 0.31 µM/h/kg. On Trypsin, this compound returned a Ki of 21 nM.

For the compound `N=C(N)c1cccc(-c2ncccc2C(=O)Nc2ccc(-c3ccccc3S(N)(=O)=O)cc2)c1.O=C(O)C(F)(F)F`, the Ki on Prothrombin came out at 15400 nM; at Trypsin, 260 nM; at Coagulation factor X [1], 1 nM.

`N=C(N)c1cccc(-n2ccnc2C(=O)Nc2ccc(-c3ccccc3S(N)(=O)=O)cc2)c1.O=C(O)C(F)(F)F`: the Ki came to 800 nM at Prothrombin, 26 nM at Trypsin and 0.33 nM on Coagulation factor X [1].

As to `N=C(N)c1cccc(-c2ccccc2C(=O)Nc2ccc(-c3ccccc3S(N)(=O)=O)cc2)c1.O=C(O)C(F)(F)F`, the Ki on Prothrombin is above 6300 nM; at Trypsin, 780 nM; on Coagulation factor X [1], 8.2 nM.

`N=C(N)c1cccc(-n2cncc2C(=O)Nc2ccc(-c3ccccc3S(N)(=O)=O)cc2)c1.O=C(O)C(F)(F)F`: the Ki is 3200 nM on Prothrombin, 58 nM at Trypsin and 1.1 nM at Coagulation factor X [1].

Turning to `N=C(N)c1cccc(-c2ocnc2C(=O)Nc2ccc(-c3ccccc3S(N)(=O)=O)cc2)c1.O=C(O)C(F)(F)F`, the Ki at Prothrombin turned out to be 3300 nM; at Trypsin, 261 nM; on Coagulation factor X [1], 2.5 nM. This compound displayed an ID50 in the test listed under Oryctolagus cuniculus of 0.54 µM/h/kg.

The compound `N=C(N)c1cccc(-n2cccc2C(=O)Nc2ccc(-c3ccccc3S(N)(=O)=O)cc2)c1` came in with a Ki at Trypsin of 56 nM.

For the compound `N=C(N)c1cccc(-c2[nH]c(O)nc2C(=O)Nc2ccc(-c3ccccc3S(N)(=O)=O)cc2)c1.O=C(O)C(F)(F)F`, the Ki was 6000 nM on Prothrombin, 390 nM at Trypsin and 2.3 nM on Coagulation factor X [1].

As to `Cn1cc(C(=O)Nc2ccc(-c3ccccc3S(N)(=O)=O)cc2)c(-c2cccc(C(=N)N)c2)n1.O=C(O)C(F)(F)F`, the Ki came to 2640 nM on Prothrombin, 220 nM on Trypsin and 0.2 nM at Coagulation factor X [1].

On to `Cc1nc(-c2cccc(C(=N)N)c2)c(C(=O)Nc2ccc(-c3ccccc3S(N)(=O)=O)cc2)s1.O=C(O)C(F)(F)F`, for which the Ki on Prothrombin came out at 1250 nM; at Trypsin, 60 nM; on Coagulation factor X [1] it was 0.06 nM; on Coagulation factor X [2], 0.08 nM. In the test listed under Oryctolagus cuniculus, the ID50 turned out to be 0.5 µM/h/kg.

Consider `N=C(N)c1cccc(-n2nccc2C(=O)Nc2ccc(-c3ccccc3S(N)(=O)=O)cc2)c1`, for which the Ki at Trypsin is 15 nM.

In the case of `Cc1nc(-c2cccc(C(=N)N)c2)c(C(=O)Nc2ccc(-c3ccccc3S(N)(=O)=O)cc2)o1.O=C(O)C(F)(F)F`, the Ki at Prothrombin amounted to 3600 nM; on Trypsin, 190 nM; at Coagulation factor X [1], 0.4 nM.

Turning to `Cc1nc(C(=O)Nc2ccc(-c3ccccc3S(N)(=O)=O)cc2)c(-c2cccc(C(=N)N)c2)[nH]1.O=C(O)C(F)(F)F`, the Ki on Prothrombin is above 21000 nM; on Trypsin, 1100 nM; at Coagulation factor X [1], 6 nM.

As for `N=C(N)c1cccc(-c2ncsc2C(=O)Nc2ccc(-c3ccccc3S(N)(=O)=O)cc2)c1.O=C(O)C(F)(F)F`, the values for the Ki on Prothrombin, at Trypsin and at Coagulation factor X [1] were above 6300 nM, 97 nM and 0.82 nM, respectively.

With `N=C(N)c1cccc(-n2nncc2C(=O)Nc2ccc(-c3ccccc3S(N)(=O)=O)cc2)c1.O=C(O)C(F)(F)F`, the Ki on Prothrombin is 300 nM; on Trypsin, 3.4 nM; on Coagulation factor X [1], 0.023 nM.

Turning to `Cc1cn(-c2cccc(C(=N)N)c2)c(C(=O)Nc2ccc(-c3ccccc3S(N)(=O)=O)cc2)n1.O=C(O)C(F)(F)F`, the Ki on Prothrombin is 600 nM; at Trypsin, 27 nM; on Coagulation factor X [1], 0.3 nM.

What is called Ki is a dissociation constant, usually derived from enzyme kinetics or from competition with a known ligand. Higher therefore signals weaker binding.

The values are drawn from ChEMBL document CHEMBL1134213, “Synthesis and SAR of benzamidine factor Xa inhibitors containing a vicinally-substituted heterocyclic core” (Bioorg Med Chem Lett, 2001).
